pEC50, pIC50: −log10 of the molar value.
Key:
[1] = cited from earlier work
[2] = target: T1, nicotinic acetylcholine receptor nAChR (a4/b2) (Homo sapiens, UniProt P17787+P43681); assay: FLIPR Membrane Potential ion channel assay, nAChR (a4/b2) blocker; type: cell-based; details: read-out: EC50/IC50
T1 construct: expressed in transfected cells
Method: Methods—Ion Channel Assay: Membrane potential changes were measured using the FLIPR® Membrane potential Assay Kit. A fluorescent indicator dye in combination with a quencher is used to reflect real-time membrane potential changes associated with ion channel activation and ion transporter proteins.
To determine agonist and antagonist activity, cell lines were expanded from freezer stocks, seeded into multi-well microplates, and incubated at 37° C. Cells were then loaded with dye and incubated again.
For agonist determination, cells were incubated with the sample a different dilutions to induce a response. For antagonist determination, cells were pre-incubated with the sample at different dilutions. Following dye administration, the sample was added to the cells in the presence of EC80 agonist and then re-incubated at room temperature in the dark.
Compound activity was analyzed using CBIS data analysis suite (ChemInnovation, CA). For agonist mode assays, percentage activity was calculated using the following formula: % Activity=100%×(mean RLU of test sample−mean RLU of vehicle control)/(mean MAX control ligand−mean RLU of vehicle control).
For antagonist mode assays, percentage inhibition was calculated using the following formula: % Inhibition=100%×(1−(mean RLU of test sample−mean RLU of vehicle control)/(mean RLU of EC80 control−mean RLU of vehicle control)).

[3] = target: T2, serotonin receptor 2B (HTR2B) (Homo sapiens, UniProt P41595); assay: Calcium No Wash Plus calcium mobilization assay, HTR2B antagonist mode; type: cell-based
T2 construct: expressed in transfected cells
Method: Methods—Calcium Mobilization: GPCR activity of serotonin receptor 2B (HTR2B), among others, was measured using the Calcium No Wash^Plus assay, which monitors calcium mobilization in cell lines expressing Gq-coupled GPCRs by loading a calcium-sensitive dye into cells.
Cell lines were expanded from freezer stocks and seeded into multi-well microplates. Then, the plates were incubated at 37° C. for an appropriate amount of time and loaded with Dye Loading buffer. To determine compound agonist activity, cells were incubated with the sample to induce a response, and HBSS/20 mM Hepes was added using a FLIPR Tetra (MDS). Activity was measured on a FLIPR Tetra. Calcium mobilization was monitored for 2 minutes.
To determine compound antagonist activity, cells were pre-incubated with the sample followed by an post-incubation administration of the compound with 3×EC80 agonist using FLIPR. Compound antagonist activity was measured on a FLIPR Tetra (MDS) and calcium mobilization was monitored for 2 minutes.
Compound activity was analyzed using CBIS data analysis suite (ChemInnovation, CA). For agonist mode assays, percentage activity was calculated using the following formula: % Activity=100%×(mean RFU of test sample−mean RFU of vehicle control)/(mean MAX RFU control ligand −mean RFU of vehicle control). […]

NET = target: T3, NET (Homo sapiens, UniProt P23975); assay: Neurotransmitter Transporter Uptake Assay, NET blocker mode; type: cell-based
T3 construct: expressed in transfected cells
Method: Methods—Monoamine Transporter Assay: Neurotransmitter uptake via transporters was measured using the Neurotransmitter Transporter Uptake Assay Kit from Molecular Devices. Dopamine, norepinephrine or serotonin transporter activity in cells was detected using a homogeneous fluorescence based assay. Increased intracellular fluorescence intensity following uptake of biogenic amine neurotransmitters via transporters is measured and can be run in a kinetic or endpoint mode.
To determine percentage inhibition of neurotransmitter uptake via transporter, cell lines were expanded from freezer stocks, seeded into a multi-well microplate, and incubated at 37° C. Then, the compound was administered and the mix was incubated again. Following compound incubation, dye was added to the wells and the plate was re-incubated. Microplates were then transferred to a PerkinElmer Envision™ instrument for fluorescence signal detection.
Compound activity was analyzed using CBIS data analysis (ChemInnovation, CA). For blocker mode assays, percentage inhibition was calculated using the following formula: % Inhibition=100%×(1−(mean RLU of test sample−mean RLU of vehicle control)/(mean RLU of positive control−mean RLU of vehicle control)).

DAT = target: T4, DAT (Homo sapiens, UniProt Q01959); assay: Neurotransmitter Transporter Uptake Assay, DAT blocker mode; type: cell-based
T4 construct: expressed in transfected cells

HTR1B = target: T5, HTR1B (Homo sapiens, UniProt P28222); assay: Hit Hunter cAMP assay, HTR1B agonist mode; type: cell-based
T5 construct: expressed in transfected cells
Method: Methods—cAMP: Activation of HTR1B and GRM2, among other targets, was determined using the Hit Hunter® cAMP assay. The assay monitors the activation of a GPCR via Gi and Gs secondary messenger signaling, using β-Gal as a functional reporter.
To determine agonistic activity at Gi/Gs, cells were expanded from freezer stocks, seeded into multi-well plates, and incubated at 37° C. prior to addition of a test compound. To determine Gi/Gs agonism, media was aspirated from cells and replaced with 15 μL 2:1 HBSS/10 mM HEPES:cAMP XS+Ab reagent. Concentrated (4×) test compound in assay buffer was added to cells and incubated at 37° C. or room temperature for 30 or 60 minutes. For Gi agonist activation, cells were incubated with EC80 forskolin in addition to a test compound. Vehicle concentration was 1%.
For Gs agonist mode assays, percentage activity was calculated using the following formula: % Activity=100%×(mean RLU of test sample−mean RLU of vehicle control)/(mean RLU of MAX control−mean RLU of vehicle control).
For Gi agonist mode assays, percentage activity was calculated using the following formula: % Activity=100%×(1−(mean RLU of test sample−mean RLU of MAX control)/(mean RLU of vehicle control−mean RLU of MAX control)).

[4] = cited from earlier work; remark: listed apart in the source
CYP2D6 = CYP2D6 (Homo sapiens, UniProt P10635); details: cited from earlier work
CYP2D6, sequence (P10635 whole entry): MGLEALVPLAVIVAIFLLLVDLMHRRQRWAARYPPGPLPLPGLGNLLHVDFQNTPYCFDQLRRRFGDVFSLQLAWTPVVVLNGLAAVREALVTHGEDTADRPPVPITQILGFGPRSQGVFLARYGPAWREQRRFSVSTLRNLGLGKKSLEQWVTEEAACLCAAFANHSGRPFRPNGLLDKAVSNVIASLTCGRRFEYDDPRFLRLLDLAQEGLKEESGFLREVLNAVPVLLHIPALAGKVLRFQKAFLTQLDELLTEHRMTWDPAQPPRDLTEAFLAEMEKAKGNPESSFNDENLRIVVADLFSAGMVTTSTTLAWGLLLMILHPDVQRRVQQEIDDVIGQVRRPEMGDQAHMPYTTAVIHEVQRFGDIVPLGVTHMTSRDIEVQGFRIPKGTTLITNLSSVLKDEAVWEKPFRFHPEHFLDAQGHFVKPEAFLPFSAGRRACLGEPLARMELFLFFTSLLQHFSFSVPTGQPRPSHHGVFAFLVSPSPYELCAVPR

T5 sequence (P28222 whole entry, species assumed): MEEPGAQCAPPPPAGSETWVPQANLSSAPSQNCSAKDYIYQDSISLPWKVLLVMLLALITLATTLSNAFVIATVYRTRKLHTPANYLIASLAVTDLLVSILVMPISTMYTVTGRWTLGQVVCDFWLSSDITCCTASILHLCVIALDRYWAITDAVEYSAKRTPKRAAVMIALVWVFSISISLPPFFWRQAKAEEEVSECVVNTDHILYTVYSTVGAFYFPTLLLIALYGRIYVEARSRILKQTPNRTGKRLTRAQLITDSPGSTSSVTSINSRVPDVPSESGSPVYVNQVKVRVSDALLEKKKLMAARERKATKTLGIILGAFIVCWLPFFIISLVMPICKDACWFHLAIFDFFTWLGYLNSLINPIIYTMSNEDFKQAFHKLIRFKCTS
T3 sequence (P23975 whole entry): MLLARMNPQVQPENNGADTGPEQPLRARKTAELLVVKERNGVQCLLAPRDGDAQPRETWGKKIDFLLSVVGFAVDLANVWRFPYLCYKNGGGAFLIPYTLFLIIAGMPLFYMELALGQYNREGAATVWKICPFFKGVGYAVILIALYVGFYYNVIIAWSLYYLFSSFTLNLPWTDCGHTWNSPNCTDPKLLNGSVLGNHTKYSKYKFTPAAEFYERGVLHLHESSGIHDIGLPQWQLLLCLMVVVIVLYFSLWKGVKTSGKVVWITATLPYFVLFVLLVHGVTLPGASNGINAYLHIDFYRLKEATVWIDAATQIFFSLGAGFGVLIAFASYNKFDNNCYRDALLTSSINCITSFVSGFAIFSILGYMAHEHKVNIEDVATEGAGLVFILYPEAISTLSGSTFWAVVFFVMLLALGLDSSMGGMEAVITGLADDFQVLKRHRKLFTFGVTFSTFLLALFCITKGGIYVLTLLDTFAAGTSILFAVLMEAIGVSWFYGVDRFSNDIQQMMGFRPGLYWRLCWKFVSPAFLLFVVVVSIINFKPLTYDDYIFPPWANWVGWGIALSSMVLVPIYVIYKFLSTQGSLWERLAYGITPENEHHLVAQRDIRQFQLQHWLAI
T2 sequence (P41595 whole entry, species assumed): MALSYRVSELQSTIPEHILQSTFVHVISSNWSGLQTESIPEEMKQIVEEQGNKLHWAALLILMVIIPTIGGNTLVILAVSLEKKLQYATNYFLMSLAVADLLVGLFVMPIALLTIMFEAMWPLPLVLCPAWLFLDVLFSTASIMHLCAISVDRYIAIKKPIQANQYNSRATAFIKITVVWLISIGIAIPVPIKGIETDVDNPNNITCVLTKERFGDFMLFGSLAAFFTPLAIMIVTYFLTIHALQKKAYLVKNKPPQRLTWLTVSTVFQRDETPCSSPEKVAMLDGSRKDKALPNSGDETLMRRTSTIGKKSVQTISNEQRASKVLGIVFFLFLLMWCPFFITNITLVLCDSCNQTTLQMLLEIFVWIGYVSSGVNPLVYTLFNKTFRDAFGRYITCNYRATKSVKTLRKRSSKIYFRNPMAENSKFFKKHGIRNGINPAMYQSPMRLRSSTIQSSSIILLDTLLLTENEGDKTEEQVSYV
T4 sequence (Q01959 whole entry, species assumed): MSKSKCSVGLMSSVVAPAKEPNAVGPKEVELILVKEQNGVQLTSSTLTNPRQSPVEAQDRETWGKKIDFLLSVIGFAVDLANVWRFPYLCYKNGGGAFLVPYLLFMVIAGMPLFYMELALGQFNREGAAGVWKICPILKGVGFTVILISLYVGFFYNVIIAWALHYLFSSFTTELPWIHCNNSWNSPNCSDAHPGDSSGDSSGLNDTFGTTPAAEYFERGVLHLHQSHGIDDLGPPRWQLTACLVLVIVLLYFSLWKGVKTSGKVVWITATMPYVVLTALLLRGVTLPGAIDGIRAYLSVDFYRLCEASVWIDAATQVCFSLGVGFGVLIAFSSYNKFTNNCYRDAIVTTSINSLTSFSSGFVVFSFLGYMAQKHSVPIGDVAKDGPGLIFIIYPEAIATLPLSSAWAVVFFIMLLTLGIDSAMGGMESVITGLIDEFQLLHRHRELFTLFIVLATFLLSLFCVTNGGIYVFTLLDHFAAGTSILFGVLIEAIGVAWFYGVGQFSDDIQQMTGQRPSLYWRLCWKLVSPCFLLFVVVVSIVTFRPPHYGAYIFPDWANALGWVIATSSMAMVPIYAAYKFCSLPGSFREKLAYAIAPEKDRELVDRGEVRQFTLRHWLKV
T1 sequence (P43681 29-627 limits assumed): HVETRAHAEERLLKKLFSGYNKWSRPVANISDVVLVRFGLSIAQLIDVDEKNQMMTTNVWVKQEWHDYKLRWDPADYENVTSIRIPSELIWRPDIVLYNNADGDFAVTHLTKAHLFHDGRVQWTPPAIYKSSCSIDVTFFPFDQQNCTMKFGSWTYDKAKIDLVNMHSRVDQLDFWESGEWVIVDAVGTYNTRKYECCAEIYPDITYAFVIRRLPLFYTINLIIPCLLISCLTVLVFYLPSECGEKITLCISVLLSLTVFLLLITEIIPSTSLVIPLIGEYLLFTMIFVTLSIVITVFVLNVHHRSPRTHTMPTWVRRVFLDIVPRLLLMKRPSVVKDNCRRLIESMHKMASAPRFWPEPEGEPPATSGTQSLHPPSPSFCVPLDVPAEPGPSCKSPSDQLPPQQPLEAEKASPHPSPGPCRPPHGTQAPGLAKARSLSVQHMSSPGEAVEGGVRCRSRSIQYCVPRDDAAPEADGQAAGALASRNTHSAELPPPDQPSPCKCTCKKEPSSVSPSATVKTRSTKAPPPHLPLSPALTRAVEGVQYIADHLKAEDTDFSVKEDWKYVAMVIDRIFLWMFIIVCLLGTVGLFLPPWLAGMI
T1 sequence (P17787 26-502): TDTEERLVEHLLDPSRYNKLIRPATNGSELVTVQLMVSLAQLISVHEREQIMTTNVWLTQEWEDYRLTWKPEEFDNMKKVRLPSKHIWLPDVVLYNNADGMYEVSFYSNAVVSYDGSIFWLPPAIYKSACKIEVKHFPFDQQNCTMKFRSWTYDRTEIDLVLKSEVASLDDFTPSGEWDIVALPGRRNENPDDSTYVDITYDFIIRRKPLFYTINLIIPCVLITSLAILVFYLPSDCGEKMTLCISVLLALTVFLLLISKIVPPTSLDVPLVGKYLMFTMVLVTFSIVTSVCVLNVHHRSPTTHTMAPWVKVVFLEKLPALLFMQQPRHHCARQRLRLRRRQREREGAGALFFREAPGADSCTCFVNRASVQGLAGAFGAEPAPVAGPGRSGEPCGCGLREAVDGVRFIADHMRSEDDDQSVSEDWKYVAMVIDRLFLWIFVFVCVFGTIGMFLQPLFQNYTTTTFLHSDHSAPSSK

For [2H]C1([2H])Oc2ccc(CC(C)NC)cc2O1 (stereo not drawn) [d2-MDMA], the interoceptive effects ([1]; deuterium substitution at the methylenedioxy ring moiety) is given as “does not impact MDMA's interoceptive effects” and the hyperthermic effects ([1]; in vivo) is given as “reduced potential for producing hyperthermic effects”.

[2H]C([2H])([2H])NC(C)Cc1ccc2c(c1)OCO2 (stereo not drawn) [MDMA-d3] gave a pIC50 [2] of 5.36, a pIC50 [3] of 5.38 and a pIC50 (NET) of 5.41. It also gave a pIC50 (DAT) of 5.12 and a pEC50 (HTR1B) of 5.52.

Compound CNC(C)Cc1ccc2c(c1)OCO2 (stereo not drawn) [MDMA, 3,4-methylenedioxymethamphetamine] has a pIC50 [2] of 5.50, a pIC50 [3] of 5.27 and a pIC50 (NET) of 5.60. For the same compound, the pIC50 (DAT) was 5.01, the “efficacy in severe PTSD” value ([4]; MDMA-assisted therapy compared to therapy with inactive placebo) was “highly efficacious” and the safety and tolerability ([4]; individuals with severe PTSD, even with comorbidities) was “safe and well-tolerated”. For the same compound, the CYP2D6 inhibition (CYP2D6) was “inhibit CYP2D6” and the pEC50 (HTR1B) was 5.33.
